Measurements taken from patent US20170066717A1, “NEW PHENYLAZETIDINECARBOXYLATE OR -CARBOXAMIDE COMPOUNDS” (INVENTIVA, priority 2014, published 2017).

Assays:
NURR-1/RXRα = target: T1, NURR-1/RXRα (Homo sapiens, UniProt P19793); assay: Transactivation test, NURR-1-Gal4/RXRα, luciferase reporter in Cos-7 cells; assay type: cell-based; settings: for Emax: COS-7, induction level relative to reference XCT0135908 at 2×10^−5 M (=100%), read-out: hNurr1_RXRaFL Emax (%); for EC50: Cos-7 cells, NURR-1-Gal4/RXRα, luciferase reporter, read-out: hNurr1_RXRaFL EC50
T1 construct: expressed in transfected cells; host or cells: Cos-7 cells
Method: (§1) The ability of the compounds according to the invention to behave as an activator of the heterodimers formed by the NURR-1 nuclear receptor and the RXR nuclear receptors was measured by means of an in vitro test. A transactivation test was used as primary selection (screening) test. Cos-7 cells were cotransfected with a plasmid expressing a chimera of the human NURR-1-Gal4 receptor, a plasmid expressing the human RXR receptor (RXRα or RXRγ receptor) and a 5Gal4pGL3-TK-Luc reporter plasmid. The transfctions were carried out using a chemical agent (Jet PEI). The transfected cells were distributed into 384-well plates and left to stand for 21 hours. At time 24 hours the culture medium was changed. The test products were added (final concentration of between 10^''4 and 3×10^-10 M) to the culture medium. After incubation overnight, the lucifeiase expression was measured after addition of SteadyGlo according to the instructions of the manufacturer (Promega). […] The induction levels (Emax) were calculated relative to the basal activity of each heterodimer.

NURR-1/RXRγ = target: T2, NURR-1/RXRγ (Homo sapiens, UniProt P48443); assay: Transactivation test, NURR-1-Gal4/RXRγ, luciferase reporter in Cos-7 cells; assay type: cell-based; settings: for Emax: COS-7, induction level relative to reference XCT0135908 at 2×10^−5 M (=100%), read-out: hNurr1_RXRgFL Emax (%); for EC50: Cos-7 cells, NURR-1-Gal4/RXRγ, luciferase reporter, read-out: hNurr1_RXRgFL EC50
T2 construct: expressed in transfected cells; host or cells: Cos-7 cells
Method: as §1

T2 sequence (P48443 whole entry, the tested form may be a part): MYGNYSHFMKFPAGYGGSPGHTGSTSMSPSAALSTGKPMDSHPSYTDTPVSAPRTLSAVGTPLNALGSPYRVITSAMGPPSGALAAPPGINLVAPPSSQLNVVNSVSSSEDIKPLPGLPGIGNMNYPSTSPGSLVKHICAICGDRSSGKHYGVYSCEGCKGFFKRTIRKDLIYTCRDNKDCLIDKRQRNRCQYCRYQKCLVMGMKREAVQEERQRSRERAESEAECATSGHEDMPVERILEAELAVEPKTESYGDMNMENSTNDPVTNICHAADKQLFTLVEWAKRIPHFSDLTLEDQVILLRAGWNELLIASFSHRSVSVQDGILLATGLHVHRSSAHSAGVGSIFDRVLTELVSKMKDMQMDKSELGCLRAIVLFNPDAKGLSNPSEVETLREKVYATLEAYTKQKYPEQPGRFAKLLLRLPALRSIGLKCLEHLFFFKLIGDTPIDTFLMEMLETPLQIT
T2 sequence (P43354 whole entry partner, the tested form may be a part): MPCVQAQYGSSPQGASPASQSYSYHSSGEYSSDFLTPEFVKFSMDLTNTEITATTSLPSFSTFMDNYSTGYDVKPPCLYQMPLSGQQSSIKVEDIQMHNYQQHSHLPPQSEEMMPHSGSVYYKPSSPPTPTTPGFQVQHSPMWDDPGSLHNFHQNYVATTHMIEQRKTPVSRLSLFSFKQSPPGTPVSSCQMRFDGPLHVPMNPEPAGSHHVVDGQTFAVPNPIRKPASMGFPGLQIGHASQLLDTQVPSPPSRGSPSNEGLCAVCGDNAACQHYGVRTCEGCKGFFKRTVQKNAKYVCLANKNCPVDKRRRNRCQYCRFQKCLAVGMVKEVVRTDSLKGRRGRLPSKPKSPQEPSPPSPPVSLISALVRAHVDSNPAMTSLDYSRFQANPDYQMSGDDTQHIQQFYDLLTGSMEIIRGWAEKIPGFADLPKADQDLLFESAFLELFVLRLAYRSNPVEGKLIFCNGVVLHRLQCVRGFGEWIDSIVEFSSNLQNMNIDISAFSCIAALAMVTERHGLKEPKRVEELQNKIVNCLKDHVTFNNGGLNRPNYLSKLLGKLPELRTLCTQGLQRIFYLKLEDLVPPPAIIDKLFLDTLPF
T2 sequence (P04386 1-147 partner limits assumed): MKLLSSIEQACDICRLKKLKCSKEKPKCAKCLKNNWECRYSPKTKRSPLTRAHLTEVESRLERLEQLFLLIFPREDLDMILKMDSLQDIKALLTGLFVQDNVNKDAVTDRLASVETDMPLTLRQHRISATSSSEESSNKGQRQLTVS
T1 sequence (P19793 whole entry, the tested form may be a part): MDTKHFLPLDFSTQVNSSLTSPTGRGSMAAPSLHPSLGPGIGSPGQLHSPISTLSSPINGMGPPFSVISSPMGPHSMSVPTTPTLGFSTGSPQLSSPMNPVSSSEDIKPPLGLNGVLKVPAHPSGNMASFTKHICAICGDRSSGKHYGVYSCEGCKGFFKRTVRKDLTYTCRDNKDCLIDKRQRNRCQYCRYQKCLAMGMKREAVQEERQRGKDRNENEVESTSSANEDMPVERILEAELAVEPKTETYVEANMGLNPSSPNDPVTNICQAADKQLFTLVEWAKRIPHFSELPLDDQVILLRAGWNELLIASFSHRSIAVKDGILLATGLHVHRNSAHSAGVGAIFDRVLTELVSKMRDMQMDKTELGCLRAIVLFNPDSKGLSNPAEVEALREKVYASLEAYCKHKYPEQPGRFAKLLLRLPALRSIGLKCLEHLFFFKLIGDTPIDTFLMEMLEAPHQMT
T1 sequence (P43354 whole entry partner, the tested form may be a part): as the sequence (P43354 whole entry partner, the tested form may be a part) above
T1 sequence (P04386 1-147 partner limits assumed): as the sequence (P04386 1-147 partner limits assumed) above

| Emax (NURR-1/RXRα) | EC50 (NURR-1/RXRα) | Emax (NURR-1/RXRγ) | EC50 (NURR-1/RXRγ) | Compound |
| --- | --- | --- | --- | --- |
| 108% | 50 nM | 107% | 112 nM | CC(C)(C)c1cc(-c2cccc(N3CC(C(=O)O)C3)c2)nc(C(C)(C)C)n1 [Example 81, 1-[3-(2,6-di-tert-butylpyrimidin-4-yl)phenyl]azetidine-3-carboxylic acid] |
| 93% | 207 nM | 98% | 339 nM | O=C(O)C1CN(c2cccc(-c3cc(Cl)nc(C(F)(F)F)c3)c2)C1 [Example 78] |
| 112% | 44 nM | 120% | 82 nM | CC(C)(C)c1cccc(-c2cccc(N3CC(C(=O)O)C3)c2)c1 [Example 84, 1-[3-(3-tert-butylphenyl)phenyl]azetidine-3-carboxylic acid] |
| 102% | 13 nM | 101% | 4 nM | Cc1cc(-c2cc(C(F)(F)F)nc3ccccc23)cc(N2CC(C(=O)O)C2)c1 [Example 21, 1-[3-methyl-5-[2-(trifluoromethyl)-4-quinolyl]phenyl]azetidine-3-carboxylic acid] |
| 115% | 177 nM | 88% | 543 nM | CN(C)c1nc(-c2cccc(N3CC(C(=O)O)C3)c2)cc(C(F)(F)F)n1 [Example 79, 1-[3-[2-(dimethylamino)-6-(trifluoromethyl)pyrimidin-4-yl]phenyl]azetidine-3-carboxylic acid] |
| 111% | 73 nM | 114% | 335 nM | Cc1cn(-c2cccc(N3CC(C(=O)NC(C)(C)C)C3)c2)c2ccc(C(F)(F)F)cc12 [Example 171, N-tert-butyl-1-[3-[3-methyl-5-(tirfluoromethyl)indol-1-yl]phenyl]azetidine-3-carboxamide] |
| 117% | 7 nM | 96% | 10 nM | O=C(O)C1CN(c2cccc(-c3cc(C(F)(F)F)ccc3OCc3cccs3)c2)C1 [Example 96] |
| 96% | 38 nM | 100% | 28 nM | Cc1cc(-c2cccc(N3CCCC3)c2)cc(N2CC(C(=O)O)C2)c1 [Example 4, 1-[3-methyl-5-(3-pyrrolidin-1-ylphenyl)phenyl]azetidine-3-carboxlic acid] |
| 100% | 823 nM | 93% | 1380 nM | Cc1cn(-c2cccc(N3CC(C(=O)NC4CCN(C)CC4)C3)c2)c2ccc(C(F)(F)F)cc12 [Example 162, N-(1-methyl-4-piperidyl)-1-[3-[3-methyl-5-(trifluromethyl)indol-1-yl]phenyl]azetidine-3-carboxamide] |
| 43% | 278 nM | 77% | 282 nM | O=C(O)C1CN(c2cccc(-c3cc(C(F)(F)F)ccc3OCC3CCOC3)c2)C1 (stereo not shown) [Example 91] |
| 106% | 57 nM | 85% | 40 nM | CC(C)(C)c1cc(F)cc(-c2cccc(N3CC(C(=O)O)C3)c2)c1 [Example 75, 1-[3-(3-tert-butyl-5-fluorophenyl)phenyl]azetidine-3-carboxylic acid] |
| 56% | 17 nM | 51% | 19 nM | O=C(O)C1CN(c2cccc(-c3cc(C(F)(F)F)ccc3OCc3ccc(F)cc3)c2)C1 [Example 99, 1-[3-[2-[(4-fluorophenyl),ethoxy]-5-(trifluroomethyl)phenyl]phenyl]azetidine-3-carboxylic acid] |
| 67% | 25 nM | 82% | 28 nM | CCCC1CNc2c(cc(C(F)(F)F)cc2-c2cccc(N3CC(C(=O)O)C3)c2)O1 (stereo not shown) [Example 67, 1-[3-[2-propyl-7-(trifluoromethyl)-3,4-dihydro-2H-1,4-benzoxazin-5-yl]phenyl]azetidine-3-carboxylic acid] |
| 90% | 7 nM | 88% | 10 nM | O=C(O)C1CN(c2cccc(-n3cc(CC4CCOCC4)c4cc(C(F)(F)F)ccc43)c2)C1 [Example 129, 1-[3-[3-(tetrahydropyran-4-ylmethyl)-5-(trifluoromethyl)indol-1-yl]phenyl]azetidine-3-carboxylic acid] |
| 115% | 7 nM | 122% | 10 nM | O=C(O)C1CN(c2cccc(N3CC4(CCCC4)c4cc(C(F)(F)F)ccc43)c2)C1 [Example 139, 1-[3-[5′-(trifluoromethyl)spiro[cyclopentane-1,3′-indoline]-1′-yl]phenyl]azetidine-3-carboxylic acid] |
| 75% | > 5000 nM | 33% | > 5000 nM | O=C(O)C1CN(c2cccc(-c3cccc(C(F)(F)F)n3)c2)C1 [Example 38, 1-[3-[6-(trifluoromethyl)-2-pyridyl]phenyl]azetidine-3-carboxylic acid] |
| 108% | 40 nM | 97% | 30 nM | O=C(O)C1CN(c2cccc(N3CC4(CCOC4)c4cc(C(F)(F)F)ccc43)c2)C1 (stereo not shown) [Example 140, 1-[3-[5-(trifluoromethyl)spiro[indoline-3,3′-tetrahydrofuran]-1-yl]phenyl]azetidine-3-carboxylic acid] |
| 76% | 45 nM | 58% | 70 nM | Cn1cc(-c2cc(N3CC(C(=O)O)C3)cc(C(F)(F)F)c2)c2ccc(C(F)(F)F)cc21 [Example 28, 1-[3-[1-methyl-6-(trifluoromethyl)indol-3-yl]-5-(trifluoromethyl)phenyl]azetidine-3-carboxylic acid] |
| 97% | 28 nM | 105% | 24 nM | O=C(O)C1CN(c2cccc(N3c4ccc(C(F)(F)F)cc4C4CCCCC43)c2)C1 (stereo not shown) [Example 144, 1-[3-[6-(trifluoromethyl)-1,2,3,4,4a,9a-hexahydrocarbazol-9-yl]phenyl]azetidine-3-carboxylic acid] |
| 46% | > 5000 nM | 38% | 1080 nM | Cc1cn(-c2cc(N3CC(C(=O)O)C3)cc(C(C)(C)C)c2)c2ccc(C(F)(F)F)cc12 [Example 56, 1-[3-tert-butyl-5-[3-methyl-5-(trifluoromethyl)indol-1-yl]phenyl]azetidine-3-carboxylic acid] |
| 98% | 7 nM | 111% | 14 nM | CC(=O)NCCCNC(=O)C1CN(c2cccc(-n3cc(C)c4cc(C(F)(F)F)ccc43)c2)C1 [Example 182, N-(3-acetamidopropyl)-1-[3-[3-methyl-5-(trifluoromethyl)indol-1-yl]phenyl]azetidine-3-carboxylate] |
| 48% | 19 nM | 48% | 30 nM | O=C(O)C1CN(c2cccc(-c3cc(C(F)(F)F)ccc3OCc3cccc(Cl)c3)c2)C1 [Example 107, 1-[3-[2-[(3-chlorophenyl)methyoxy]-5-(trifluoromethyl)-phenyl]phenyl]azetidine-3-carboxylic acid] |
| 40% | 13 nM | 36% | 13 nM | Cc1cc(C)cc(COc2ccc(C(F)(F)F)cc2-c2cccc(N3CC(C(=O)O)C3)c2)c1 [Example 106, 1-[3-[2-[(3,5-dimethylphenyl)methoxy]-5-(trifluoromethyl)phenyl]phenyl]azetidine-3-carboxylic acid] |
| 100% | 27 nM | 90% | 32 nM | Cc1cn(-c2cccc(N3CC(C(=O)NCCN4CCOCC4)C3)c2)c2ccc(C(F)(F)F)cc12 [Example 170, 1-[3-[3-methyl-5-(trifluoromethyl)indol-1-yl]phenyl]-N-(2-morpholinoethyl)azetidine-3-carboxamide] |
| 71% | > 5000 nM | 62% | > 5000 nM | O=C(O)C1CN(c2cccc(-c3ccnc(C(F)(F)F)c3)c2)C1 [Example 32, 1-[3-[2-(trifluoromethyl)-4-pyridyl]phenyl]azetidine-3-carboxylic acid] |
| 119% | 8 nM | 144% | 12 nM | Cc1cn(-c2cccc(N3CC(C(=O)NC4CCC4)C3)c2)c2ccc(C(F)(F)F)cc12 [Example 179] |
| 103% | 168 nM | 96% | 293 nM | Cc1cn(-c2cccc(N3CC(C(=O)NCCN4CCN(C)CC4)C3)c2)c2ccc(C(F)(F)F)cc12 [Example 181, N-[2-(4-methylipiperazin-1-yl)ethyl]-1-[3-[3-methyl-5-(trifluoromethyl)indol-1-yl]phenyl]azetidine-3-carboxamide] |
| 119% | > 5000 nM | 71% | > 5000 nM | Cc1nc(-c2ccccc2)oc1-c1cccc(N2CC(C(=O)O)C2)c1 [Example 33, 1-[3-(4-methyl-2-phenyl-oxazol-5-yl)phenyl]azetidine-3-carboxylic acid] |
